According to patent US20180055887A1, “METHOD FOR PREPARING INDUCED MESENCHYMAL STEM CELLS AND IMPROVING MESENCHYMAL STEM CELL'S CHARACTERS AND ITS APPLICATIONS” (ACADEMIA SINICA, priority 2016, published 2018):
Marks after values point to notes of the source that are not given here.

Key:
[1] = system: Human primary neonatal foreskin fibroblasts (CRL2097); experiment: Generation of iMSCs from fibroblasts by chemical treatment, flow cytometry for SSEA-4 and PODXL; format: cell-based; settings: for Percentage of cells with both SSEA-4 and PODXL: CRL2097 fibroblasts, DMEM only 0.1%; for iMSC generation from fibroblasts (in words): SSEA-4+PODXL+ population by flow cytometry, without growth factors
Protocol: For iMSC dedifferentiation from human fibroblasts, primary fibroblasts were cultured in DMEM-HG for 2 days. The culture medium was then replaced with medium containing different chemical(s), with or without growth factor(s), for 3 to 21 days (FIG. 1A). Cells were cultured at 37° C. under 5% CO2.
Cells were then analyzed by FACSCanto (Becton Dickinson, Franklin Lakes, N.J., USA). SSEA-4 and PODXL double positive cells were isolated using a cell sorter (FACS Aria II, BD Biosciences).
After culture, the cells treated by the chemical cocktail were examined by flow cytometry.
Human primary neonatal foreskin fibroblasts (CRL2097) were cultured in DMEM medium only (as a negative control) or in DMEM medium containing a GSK3β inhibitor (CHIR99021, 3 μM) or a protein kinase C inhibitor (Go6983, 5 μM), and the percentage of the cells converted to iMSCs, co-expressing SSEA-4 and PODXL, were determined by flow cytometer.
Additional combinations of chemicals were analyzed for their activities to generate iMSCs from fibroblasts and the percentage of the cells converted to iMSCs, co-expressing SSEA-4 and PODXL, were determined by flow cytometer.

BMMSCs = experiment: Improvement of multipotency of MSCs: percentage of MSC markers SSEA-4 and PODXL by flow cytometer; format: cell-based, human; settings: treatment of BMMSCs
Protocol: For cell surface marker analysis, BMMSCs, iMSCs, and fibroblasts were incubated with FITC-conjugated anti-human SSEA-4 (clone MC-813-70; eBiosciences, San Diego, Calif., USA) and PE-conjugated anti-human PODXL (clone B34D1.3; eBiosciences) antibodies. Cells were then analyzed by FACSCanto (Becton Dickinson, Franklin Lakes, N.J., USA). SSEA-4 and PODXL double positive cells were isolated using a cell sorter (FACS Aria II, BD Biosciences).
BBMSCs were cultured in conversion medium for 6 days, without chemical treatment (control) or with treatment of chemical cocktails (6C+3GF), including six chemical kinase(6C) inhibitors i.e. a p38 inhibitor (5B202190), a JNK inhibitor (SP600125), a protein kinase C inhibitor (Go6983), a ROCK inhibitor (Y-27632), a ERK1/2 inhibitor (PD0325901) and a GSK3β inhibitor (CHIR99021) and three growth factors i.e. a leukemia inhibitory factor (LIF), a basic fibroblast growth factor (bFGF) and a transforming growth factor-β (TGF-β). In other conditions, MSCs were cultured with chemicals cocktails (six, seven or eight chemicals) without the growth factors. The percentages of the MSC markers, SSEA-4 and PODXL, were determined by flow cytometer. Six chemicals (6C) includes a p38 inhibitor (SB202190), a JNK inhibitor (SP600125), a protein kinase C inhibitor (Go6983), a ROCK inhibitor (Y-27632), a ERK1/2 inhibitor (PD0325901) and a GSK3β inhibitor (CHIR99021). […]

[2] = Table 2: other factors or a combination, tested in the same manner

SMILES: COc1cc2nc(N3CCCN(C)CC3)nc(NC3CCN(Cc4ccccc4)CC3)c2cc1OC [BIX01294]
- Percentage of cells with both SSEA-4 and PODXL [1, 2]: 0.30%

SMILES: Cc1cnc(-c2cnc(NCCNc3ccc(C#N)cn3)nc2-c2ccc(Cl)cc2Cl)[nH]1 [CHIR99021, 6-[(2-{[4-(2,4-Dichlorophenyl)-5-(5-methyl-1H-imidazol-2-yl)-2-pyrimidinyl]amino}ethyl)amino]nicotinonitrile]
- iMSC generation from fibroblasts (in words) [1]: effective in iMSC generation
- Percentage of cells with both SSEA-4 and PODXL ([1]; Table 1: single factor in DMEM medium, CHIR99021 3 μM, Go6983 5 μM): 0.9%
- Percentage of cells with both SSEA-4 and PODXL ([1]; Table 1: single factor in DMEM medium, CHIR99021 3 μM, Go6983 5 μM, listed as CHIR99201): 0.90%*

SMILES: Cc1nc(Nc2ncc(C(=O)Nc3c(C)cccc3Cl)s2)cc(N2CCN(CCO)CC2)n1 [Dasatinib]
- Percentage of cells with both SSEA-4 and PODXL [1, 2]: 0.40%

SMILES: c1cc(-c2cnn3cc(-c4ccc(OCCN5CCCCC5)cc4)cnc23)ccn1 [Dorsomorphin, 6-[4-(2-Piperidin-1-yl-ethoxy)-phenyl]-3-pyridin-4-yl-pyrrazolo[1,5,-α]pyrimidine]
- Percentage of cells with both SSEA-4 and PODXL [1, 2]: 0.10%
- Percentage of cells with both SSEA-4 and PODXL ([1]; Table 2: other factors or a combination, tested in the same manner, listed as dorsomorphin): 0.1%

SMILES: O=S(=O)(c1cccc2cnccc12)N1CCCNCC1 [Fasudil]
- Percentage of cells with both SSEA-4 and PODXL [1, 2]: 0.20%

SMILES: N[C@@H](CCC(=O)N[C@@H](CS)C(=O)NCC(=O)O)C(=O)O [GSH, Glutathione]
- Percentage of cells with both SSEA-4 and PODXL [1, 2]: 0.40%

SMILES: COc1ccc2c(c1)c(C1=C(c3c[nH]c4ccccc34)C(=O)NC1=O)cn2CCCN(C)C [Go6983, 3-{1-[3-(Dimethylamino)propyl]-5-methoxy-1H-indol-3-yl}-4-(1H-indol-3-yl)-1H-pyrrole-2,5-dione]
- expression of functional markers of BMSCs (in words) (BMMSCs): can effectively increase the expression of functional markers
- iMSC generation from fibroblasts (in words) [1]: effective in iMSC generation

SMILES: O=c1cc(N2CCOCC2)oc2c(-c3ccccc3)cccc12 [LY294002]
- Percentage of cells with both SSEA-4 and PODXL [1, 2]: 0.80%

SMILES: CC(=O)N[C@@H](CS)C(=O)O [NAC, N-Acetylcysteine]
- Percentage of cells with both SSEA-4 and PODXL [1, 2]: 0.50%

SMILES: O=C(NOC[C@@H](O)CO)c1ccc(F)c(F)c1Nc1ccc(I)cc1F [PD0325901, N-[(2S)-2,3-Dihydroxypropoxy]-3,4-difluoro-2-[(2-fluoro-4-iodophenyl)amino]benzamide]
- Percentage of cells with both SSEA-4 and PODXL [1, 2]: 0.40%

SMILES: CO[C@H]1C[C@@H]2CC[C@@H](C)[C@@](O)(O2)C(=O)C(=O)N2CCCC[C@H]2C(=O)O[C@H]([C@H](C)C[C@@H]2CC[C@@H](O)[C@H](OC)C2)CC(=O)[C@H](C)/C=C(\C)[C@@H](O)[C@@H](OC)C(=O)[C@H](C)C[C@H](C)/C=C/C=C/C=C/1C [Rapamycin, (1R,9S,12S,15R,16E,18R,19R,21R,23S,24E,26E,28E,30S,32S,35R)-1,18-Dihydroxy-12-{(2R)-1-[(1S,3R,4R)-4-hydroxy-3-methoxycyclohexyl]-2-propanyl}-19,30-dimethoxy-15,17,21,23,29,35-hexamethyl-11,36-dioxa-4-azatricyclo[30.3.1.0~4,9~]hexatriaconta-16,24,26,28-tetraene-2,3,10,14,20-pentone]
- Percentage of cells with both SSEA-4 and PODXL [1, 2]: 0.20%

SMILES: Cc1cccc(-c2n[nH]cc2-c2ccc3ncccc3n2)n1 [Repsox, 2-[3-(6-Methyl-2-pyridinyl)-1H-pyrazol-4-yl]-1,5-naphthyridine]
- Percentage of cells with both SSEA-4 and PODXL [1, 2]: 0.40%

SMILES: COc1ccc(C2CNC(=O)C2)cc1OC1CCCC1 (stereo not shown) [Rolipram]
- Percentage of cells with both SSEA-4 and PODXL [1, 2]: 0.30%

SMILES: Oc1ccc(-c2nc(-c3ccncc3)c(-c3ccc(F)cc3)[nH]2)cc1 [SB202190]
- Percentage of cells with both SSEA-4 and PODXL [1, 2]: 0.10%

SMILES: C[S+]([O-])c1ccc(-c2nc(-c3ccc(F)cc3)c(-c3ccncc3)[nH]2)cc1 (stereo not shown) [SB203580]
- Percentage of cells with both SSEA-4 and PODXL [1, 2]: 0.10%

SMILES: NC(=O)c1ccc(-c2nc(-c3ccc4c(c3)OCO4)c(-c3ccccn3)[nH]2)cc1 [SB431542]
- Percentage of cells with both SSEA-4 and PODXL [1, 2]: 0.40%

SMILES: CC(C)N(CCCNC(=O)Nc1ccc(C(C)(C)C)cc1)C[C@H]1O[C@@H](n2cc(Br)c3c(N)ncnc32)[C@H](O)[C@@H]1O [SGC0946, 5-Bromo-7-(5-deoxy-5-{isopropyl[3-({[4-(2-methyl-2-propanyl)phenyl]carbamoyl}amino)propyl]amino}-β-D-ribofuranosyl)-7H-pyrrolo[2,3-d]pyrimidin-4-amine]
- Percentage of cells with both SSEA-4 and PODXL [1, 2]: 0.20%

SMILES: O=C1c2ccccc2-c2n[nH]c3cccc1c23 [SP600125]
- Percentage of cells with both SSEA-4 and PODXL [1, 2]: 0.20%

SMILES: CCCC(=O)[O-].[Na+] [Sodium butyrate]
- Percentage of cells with both SSEA-4 and PODXL [1, 2]: 0.70%

SMILES: O=C(NCc1ccccc1)c1csc(Nc2ccncn2)n1 [Thiazovivin]
- Percentage of cells with both SSEA-4 and PODXL [1, 2]: 0.80%
- Percentage of cells with both SSEA-4 and PODXL ([1]; Table 2: other factors or a combination, tested in the same manner, listed as thiazovivin): 0.8%

SMILES: CCCC(CCC)C(=O)O [VPA, 2-Propylpentanoic acid]
- Percentage of cells with both SSEA-4 and PODXL [1, 2]: 0.2%

SMILES: O=C1O[C@H]([C@@H](O)CO)C(O)=C1O [VitC, ascorbic acid]
- Percentage of cells with both SSEA-4 and PODXL [1, 2]: 0.60%

SMILES: C[C@@H](N)[C@H]1CC[C@H](C(=O)Nc2ccncc2)CC1 [Y27632]
- Percentage of cells with both SSEA-4 and PODXL [1, 2]: 0.50%
